Experimental data: BindingDB's records for PubMed 37122539 (Virginia Tech, 2023)
≈ marks a conversion by molar mass, not a printed value.

Each molecule was assayed on Enterococcus faecalis (assay: Antibacterial activity against Enterococcus faecalis ATCC 29212 incubated for 16 hrs by broth microdilution method).

SMILES | IC50
COC(=O)[C@H]1O[C@@H](n2ccc(N)nc2=O)C=C[C@@H]1NC(=O)C[C@@H](N)CCN(C)C(=N)N | 9.2 µg/mL (≈ 21.1 µM)
CN(CC[C@H](N)CC(=O)N[C@H]1C=C[C@H](n2ccc(N)nc2=O)O[C@@H]1C(=O)OCc1ccccc1)C(=N)N | 15 µg/mL (≈ 29.3 µM)
CN(CC[C@H](N)CC(=O)N[C@H]1C=C[C@H](n2ccc(N)nc2=O)O[C@@H]1C(=O)O)C(=N)N | 53 µg/mL (≈ 125 µM)
CN(CC[C@H](N)CC(=O)N[C@H]1C=C[C@H](n2ccc(N)nc2=O)O[C@@H]1C(N)=O)C(=N)N | 13 µg/mL (≈ 30.8 µM)
CN(CC[C@H](N)CC(=O)N[C@H]1C=C[C@H](n2ccc(N)nc2=O)O[C@@H]1C(=O)OCCc1ccccc1)C(=N)N | 6.9 µg/mL (≈ 13.1 µM)

Continued, values first:

IC50 | SMILES
11 µg/mL (≈ 21.7 µM) | CCCCCCOC(=O)[C@H]1O[C@@H](n2ccc(N)nc2=O)C=C[C@@H]1NC(=O)C[C@@H](N)CCN(C)C(=N)N
11 µg/mL (≈ 23.7 µM) | CCCOC(=O)[C@H]1O[C@@H](n2ccc(N)nc2=O)C=C[C@@H]1NC(=O)C[C@@H](N)CCN(C)C(=N)N
12 µg/mL (≈ 24.6 µM) | C#CCCCOC(=O)[C@H]1O[C@@H](n2ccc(N)nc2=O)C=C[C@@H]1NC(=O)C[C@@H](N)CCN(C)C(=N)N
9.9 µg/mL (≈ 22 µM) | CCOC(=O)[C@H]1O[C@@H](n2ccc(N)nc2=O)C=C[C@@H]1NC(=O)C[C@@H](N)CCN(C)C(=N)N
16 µg/mL (≈ 33.4 µM) | CCCCOC(=O)[C@H]1O[C@@H](n2ccc(N)nc2=O)C=C[C@@H]1NC(=O)C[C@@H](N)CCN(C)C(=N)N
